What was measured:
[1] = biological target: Stromelysin-1 (Homo sapiens, UniProt P08254); assay: Inhibition of recombinant matrix metalloprotease-3 (MMP-3)
[2] = biological target: Collagenase 3 (Homo sapiens, UniProt P45452); assay: Inhibition of recombinant Matrix metalloprotease-13 (MMP-13)
[3] = biological target: T1, Interstitial collagenase (Homo sapiens, UniProt P03956); assay: Inhibitory activity against recombinant matrix metalloprotease-1 (MMP-1).
T1 sequence (P03956 whole entry): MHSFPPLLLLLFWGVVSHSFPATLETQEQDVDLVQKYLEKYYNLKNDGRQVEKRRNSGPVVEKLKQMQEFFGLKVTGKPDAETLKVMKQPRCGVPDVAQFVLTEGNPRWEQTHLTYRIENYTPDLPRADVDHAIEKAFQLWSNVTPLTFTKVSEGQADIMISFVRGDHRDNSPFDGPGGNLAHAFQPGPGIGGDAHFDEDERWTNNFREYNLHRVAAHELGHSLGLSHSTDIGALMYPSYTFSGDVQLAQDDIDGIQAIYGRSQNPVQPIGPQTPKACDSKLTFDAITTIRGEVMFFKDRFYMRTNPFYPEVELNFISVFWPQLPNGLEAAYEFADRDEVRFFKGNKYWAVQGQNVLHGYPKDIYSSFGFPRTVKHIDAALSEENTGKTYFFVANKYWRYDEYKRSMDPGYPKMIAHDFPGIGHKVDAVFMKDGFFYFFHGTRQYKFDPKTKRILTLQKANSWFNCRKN

[4] = biological target: 72 kDa type IV collagenase (Homo sapiens, UniProt P08253); assay: Inhibition of recombinant matrix metalloprotease-2 (MMP-2)
[5] = Clearance after iv administration to rats; type: ADME, organism-based; conditions: rat, in vivo
[6] = Steady state volume of distribution after iv administration to rats; type: ADME, organism-based; conditions: rat, in vivo
[7] = Terminal half-life after iv administration to rats; type: ADME, organism-based; conditions: rat, in vivo
[8] = Selectivity ratio for MMP-2 over MMP-3

Sequence of Stromelysin-1 (P08254 whole entry): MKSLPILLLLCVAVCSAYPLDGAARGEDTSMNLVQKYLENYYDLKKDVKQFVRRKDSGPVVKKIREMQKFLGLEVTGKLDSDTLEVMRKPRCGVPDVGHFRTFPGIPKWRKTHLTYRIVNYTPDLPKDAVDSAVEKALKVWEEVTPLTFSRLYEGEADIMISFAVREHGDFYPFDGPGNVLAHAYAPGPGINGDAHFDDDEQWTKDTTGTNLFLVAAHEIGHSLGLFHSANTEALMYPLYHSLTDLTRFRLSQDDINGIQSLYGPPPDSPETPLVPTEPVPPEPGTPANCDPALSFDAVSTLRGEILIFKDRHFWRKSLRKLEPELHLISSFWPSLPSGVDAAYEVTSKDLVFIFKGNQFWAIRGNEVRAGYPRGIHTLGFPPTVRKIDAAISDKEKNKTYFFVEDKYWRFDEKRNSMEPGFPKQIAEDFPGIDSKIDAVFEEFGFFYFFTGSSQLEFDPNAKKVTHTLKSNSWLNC
Sequence of 72 kDa type IV collagenase (P08253 whole entry): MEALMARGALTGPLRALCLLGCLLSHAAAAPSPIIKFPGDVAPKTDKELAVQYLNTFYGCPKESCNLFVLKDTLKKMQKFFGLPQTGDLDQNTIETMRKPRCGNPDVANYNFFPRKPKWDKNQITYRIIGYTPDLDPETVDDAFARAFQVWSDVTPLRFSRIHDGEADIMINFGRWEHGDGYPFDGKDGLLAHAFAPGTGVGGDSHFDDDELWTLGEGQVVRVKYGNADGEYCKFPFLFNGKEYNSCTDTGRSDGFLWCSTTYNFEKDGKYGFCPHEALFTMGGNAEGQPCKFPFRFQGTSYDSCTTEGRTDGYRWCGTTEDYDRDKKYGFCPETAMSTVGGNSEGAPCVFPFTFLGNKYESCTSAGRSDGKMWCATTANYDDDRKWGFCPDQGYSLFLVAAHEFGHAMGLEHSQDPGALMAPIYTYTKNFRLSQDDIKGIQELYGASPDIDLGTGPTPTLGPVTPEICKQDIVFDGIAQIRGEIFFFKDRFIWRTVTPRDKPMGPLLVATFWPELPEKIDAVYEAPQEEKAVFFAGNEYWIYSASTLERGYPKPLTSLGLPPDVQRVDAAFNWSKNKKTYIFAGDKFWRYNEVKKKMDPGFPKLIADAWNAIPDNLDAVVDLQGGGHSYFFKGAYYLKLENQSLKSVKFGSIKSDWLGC

Compound | IC50 [2] [µM] | IC50 [3] [µM] | other results
CNC(=O)[C@H](NC(=O)C(CCc1ccccc1)CP(=O)(O)Cc1ccccc1)C(C)(C)C (some centres undefined) | 0.3 | 22 | IC50 [1]: 2.7 µM
CNC(=O)[C@H](NC(=O)C(CC1CCC1)CP(=O)(O)Cc1ccc(Cc2ccccc2)cc1)C(C)(C)C (some centres undefined) | 0.11 | 0.18 | –
CC(C)CC(CP(=O)(O)Cc1ccc(Cc2ccccc2)cc1)C(=O)NC(CO)C(C)(C)C (centres undefined) | – | 18 | –
CC(C)C[C@@H](NC(=O)[C@H](CCc1ccccc1)CP(=O)(O)CCCCN1C(=O)c2ccccc2C1=O)C(=O)Nc1ccccc1 | – | – | Ki [4]: 0.02 µM
CNC(=O)[C@H](NC(=O)C(CCC(C)C)CP(=O)(O)Cc1ccc(Cc2ccccc2)cc1)C(C)(C)C (some centres undefined) | > 3 | 3.5 | –
CNC(=O)[C@@H](C)NC(=O)C(CC(C)C)CP(=O)(O)Cc1ccc(Cc2ccccc2)cc1 (some centres undefined) | – | 2.3 | –
CNC(=O)[C@H](NC(=O)C(CCCCOc1ccccc1)CP(=O)(O)Cc1ccc(Cc2ccccc2)cc1)C(C)(C)C (some centres undefined) | 0.03 | > 30 | –
CNC(=O)[C@H](NC(=O)C(CC(C)C)CP(=O)(O)Cc1ccc(C(=O)c2ccccc2)cc1)C(C)(C)C (some centres undefined) | – | 0.75 | –
CNC(=O)[C@H](NC(=O)C(CC1CCCCC1)CP(=O)(O)Cc1ccc(Cc2ccccc2)cc1)C(C)(C)C (some centres undefined) | 1.6 | 1.8 | –
CNC(=O)[C@@H](Cc1ccc(OC)cc1)NC(=O)C(CC(C)C)CP(=O)(O)Cc1ccc(C(=O)NCc2ccccc2)cc1 (some centres undefined) | – | 2.1 | –
CNC(=O)[C@H](NC(=O)C(CCC1CCCCC1)CP(=O)(O)Cc1ccc(Cc2ccccc2)cc1)C(C)(C)C (some centres undefined) | 2 | 19 | –
CNC(=O)[C@H](NC(=O)C(CC(C)C)CP(=O)(O)Cc1ccc(Cc2ccccc2)cc1)C(C)(C)C (some centres undefined) | 0.18 | 0.06 | –
CNC(=O)[C@H](NC(=O)C(CC1CC1)CP(=O)(O)Cc1ccc(Cc2ccccc2)cc1)C(C)(C)C (some centres undefined) | 1.1 | 0.2 | –
CNC(=O)[C@H](NC(=O)C(CCc1ccccc1)CP(=O)(O)Cc1ccc(Cc2ccccc2)cc1)C(C)(C)C (some centres undefined) | 0.014 | 0.69 | IC50 [1]: 1.2 µM; clearance [5]: 12 mL/min/kg; Vd [6]: 0.2 L/kg; half-life [7]: 2.3 h
CC(=O)N1CCC[C@H]1C(=O)NCCCCP(=O)(O)C[C@@H](CCc1ccccc1)C(=O)N[C@H](CC(C)C)C(=O)Nc1ccccc1 | – | – | Ki [1]: 0.062 µM; Selectivity [8]: 10; Ki [4]: 0.0061 µM
CC(C)CC(CP(=O)(O)Cc1ccc(Cc2ccccc2)cc1)C(=O)NCC(C)(C)C (centres undefined) | – | 20 | –
CNC(=O)[C@H](NC(=O)C(CCC(F)(F)F)CP(=O)(O)Cc1ccc(Cc2ccccc2)cc1)C(C)(C)C (some centres undefined) | 1.6 | 0.045 | –

— ChEMBL document CHEMBL1132009, “Inhibition of MMP-1 and MMP-13 with phosphinic acids that exploit binding in the S2 pocket” (Bioorg Med Chem Lett, 1999)
